Assay results: ChEMBL document CHEMBL4007448, “The derivatives of Pulsatilla saponin A, a bioactive compound from Pulsatilla chinensis: Their synthesis, cytotoxicity, haemolytic toxicity and mechanism of action” (Eur J Med Chem, 2017)
Calls of active or inactive are those of the source. The calls are words filed in the database; no cut-off is given here.

Key:
[1] = test system: A549; assay: Cytotoxicity against human A549 cells assessed as reduction in cell viability after 48 hrs by MTT assay; type: functional, cell-based; details: A549, 48 h
[2] = test system: SMMC-7721; assay: Cytotoxicity against human SMMC7721 cells assessed as reduction in cell viability after 48 hrs by MTT assay; type: functional, cell-based; details: SMMC-7721, 48 h
[3] = test system: BGC-823; assay: Cytotoxicity against human BGC823 cells assessed as reduction in cell viability after 48 hrs by MTT assay; type: functional, cell-based; details: BGC-823, 48 h
[4] = Hemolytic activity against New Zealand rabbit erythrocytes after 60 mins; type: ADME, cell-based, Oryctolagus cuniculus, Erythrocyte; details: read-out: HD50
[5] = test system: MDA-MB-231; assay: Cytotoxicity against human MDA-MB-231 cells assessed as reduction in cell viability after 48 hrs by MTT assay; type: functional, cell-based; details: MDA-MB-231, 48 h
[6] = test system: KB; assay: Cytotoxicity against human KB cells assessed as reduction in cell viability after 48 hrs by MTT assay; type: functional, cell-based
[7] = Cytotoxicity against human KBVIN cells assessed as reduction in cell viability after 48 hrs by MTT assay; type: functional, cell-based
[8] = test system: MCF7; assay: Cytotoxicity against human MCF7 cells assessed as reduction in cell viability after 48 hrs by MTT assay; type: functional, cell-based; details: MCF7, 48 h
[9] = test system: H22; assay: Antitumor activity against […] xenografted in mouse assessed as tumor growth inhibition at 60 mg/kg/day, ip for 14 days relative to control; type: functional; details: 336 h, read-out: TGI
[10] = test system: Mus musculus; assay: Toxicity in mouse xenografted with […] assessed as hematuria at 60 mg/kg/day, ip for 14 days; type: organism-based; details: in vivo, 336 h
[11] = test system: Mus musculus; assay: Toxicity in mouse xenografted with […] assessed as death at 60 mg/kg/day, ip for 14 days; type: organism-based; details: in vivo, 336 h
[12] = test system: Blood; assay: Drug metabolism in mouse blood assessed as Pulsatilla saponin A formation at 60 mg/kg/day, ip for 14 days; type: ADME, organism-based; details: in vivo, 336 h
[13] = test system: MDA-MB-231; assay: Cell cycle arrest in human MDA-MB-231 cells assessed as accumulation at G1 phase at 5.5 uM after 24 hrs by propidium iodide staining based flow cytometry; type: functional

| Compound | IC50 [1] [µM] | IC50 [2] [µM] | IC50 [3] [µM] | HC50 at 1 h [4] [µM] | further results |
| --- | --- | --- | --- | --- | --- |
| C[C@H]1O[C@@H](O[C@H]2[C@H](O[C@H]3CC[C@@]4(C)[C@@H](CC[C@]5(C)[C@@H]4CC=C4[C@@H]6CC(C)(C)CC[C@]6(C(=O)NCCCC(=O)O)CC[C@]45C)[C@]3(C)CO)OC[C@H](O)[C@@H]2O)[C@H](O)[C@H](O)[C@H]1O | 98.7 | 27.3 | 70.2 | 313 | – |
| CC(=O)OC[C@@]1(C)[C@@H]2CC[C@]3(C)[C@H](CC(O)[C@]45OC(=O)[C@@]6(CCC(C)(C)C[C@H]64)CC[C@@]35C)[C@@]2(C)CC[C@@H]1O[C@@H]1OC[C@H](OC(C)=O)[C@H](OC(C)=O)[C@H]1O[C@@H]1O[C@H](C)[C@H](OC(C)=O)[C@@H](OC(C)=O)[C@H]1OC(C)=O (stereo partly drawn) | > 100 | 90.2 | > 100 | – | – |
| C[C@H]1O[C@@H](O[C@H]2[C@H](O[C@H]3CC[C@@]4(C)[C@@H](CC[C@]5(C)[C@@H]4CC(=O)[C@@H]4[C@@H]6CC(C)(C)CC[C@]6(C(=O)NCC(=O)O)CC[C@]45C)[C@]3(C)CO)OC[C@H](O)[C@@H]2O)[C@H](O)[C@H](O)[C@H]1O | 95.8 | 44 | 86.1 | 339 | – |
| C[C@H]1O[C@@H](O[C@H]2[C@H](O[C@H]3CC[C@@]4(C)[C@@H](CC[C@]5(C)[C@@H]4CC=C4[C@@H]6CC(C)(C)CC[C@]6(C(=O)NCCCCC(=O)O)CC[C@]45C)[C@]3(C)CO)OC[C@H](O)[C@@H]2O)[C@H](O)[C@H](O)[C@H]1O | > 100 | 26.8 | 67.8 | 228 | – |
| C[C@H]1O[C@@H](O[C@H]2[C@H](O[C@H]3CC[C@@]4(C)[C@@H](CC[C@]5(C)[C@@H]4CC(=O)[C@]46OC(=O)[C@@]7(CCC(C)(C)C[C@H]74)CC[C@@]56C)[C@]3(C)CO)OC[C@H](O)[C@@H]2O)[C@H](O)[C@H](O)[C@H]1O | > 100 | 70.6 | 80.3 | > 500 | – |
| C[C@H]1O[C@@H](O[C@H]2[C@H](O[C@H]3CC[C@@]4(C)[C@@H](CC[C@]5(C)[C@@H]4CC=C4[C@@H]6CC(C)(C)CC[C@]6(C(=O)NCC(=O)NCC(=O)O)CC[C@]45C)[C@]3(C)CO)OC[C@H](O)[C@@H]2O)[C@H](O)[C@H](O)[C@H]1O | > 100 | 57.8 | 76.3 | > 500 | – |
| C[C@H]1O[C@@H](O[C@H]2[C@H](O[C@H]3CC[C@@]4(C)[C@@H](CC[C@]5(C)[C@@H]4CC(=O)[C@@H]4[C@@H]6CC(C)(C)CC[C@]6(C(=O)O)CC[C@]45C)[C@]3(C)CO)OC[C@H](O)[C@@H]2O)[C@H](O)[C@H](O)[C@H]1O | 91 | 53.8 | 77.2 | 190 | – |
| CC1(C)CC[C@]2(C(=O)O)CC[C@]3(C)C(=CC[C@@H]4[C@@]5(C)CC[C@H](O)[C@@](C)(CO)[C@@H]5CC[C@]43C)[C@@H]2C1 [HEDERAGENIN] | 10.2 | – | – | > 200 | IC50 [5]: 36.6 µM; IC50 [6]: 14.6 µM; IC50 [7]: 27.9 µM; IC50 [8]: 39.4 µM |
| C[C@H]1O[C@@H](O[C@H]2[C@H](O[C@H]3CC[C@@]4(C)[C@@H](CC[C@]5(C)[C@@H]4CC(O)[C@]46OC(=O)[C@@]7(CCC(C)(C)C[C@H]74)CC[C@@]56C)[C@]3(C)CO)OC[C@H](O)[C@@H]2O)[C@H](O)[C@H](O)[C@H]1O (stereo partly drawn) | > 100 | 56.6 | 81.9 | 77.7 | – |
| C[C@H]1O[C@@H](O[C@H]2[C@H](O[C@H]3CC[C@@]4(C)[C@@H](CC[C@]5(C)[C@@H]4C/C(=N/O)[C@@H]4[C@@H]6CC(C)(C)CC[C@]6(C(=O)O)CC[C@]45C)[C@]3(C)CO)OC[C@H](O)[C@@H]2O)[C@H](O)[C@H](O)[C@H]1O | > 100 | 69.4 | 95.6 | > 500 | – |
| C[C@@H]1O[C@@H](O[C@H]2[C@H](O[C@H]3CC[C@@]4(C)[C@@H](CC[C@]5(C)[C@@H]4CC=C4[C@@H]6CC(C)(C)CC[C@]6(C(=O)NCC(=O)O)CC[C@]45C)[C@]3(C)CO)OC[C@H](O)[C@@H]2O)[C@H](O)[C@@H](O)[C@H]1O | – | – | – | – | inhibition in vivo at 60 mg/kg/day [9]: 35.6%; Activity [10]: Non-Toxic; Activity [11]: Non-Toxic; Drug metabolism [12]: Metabolite_Notdetected |
| COC(=O)CCN1CCN(C(=O)[C@]23CCC(C)(C)C[C@H]2C2=CC[C@@H]4[C@@]5(C)CC[C@H](OC(C)=O)[C@@](C)(COC(C)=O)[C@@H]5CC[C@@]4(C)[C@]2(C)CC3)CC1 | 4.69 | – | – | > 500 | IC50 [5]: 5.54 µM; IC50 [6]: 5.08 µM; IC50 [7]: 5.25 µM; IC50 [8]: 10.7 µM; Activity [13]: Active |
| C[C@H]1O[C@@H](O[C@H]2[C@H](O[C@H]3CC[C@@]4(C)[C@@H](CC[C@]5(C)[C@@H]4CC=C4[C@@H]6CC(C)(C)CC[C@]6(C(=O)NCCCCCC(=O)O)CC[C@]45C)[C@]3(C)CO)OC[C@H](O)[C@@H]2O)[C@H](O)[C@H](O)[C@H]1O | > 100 | 27.4 | 65.5 | 393 | – |
| C[C@H]1O[C@@H](O[C@H]2[C@H](O[C@H]3CC[C@@]4(C)[C@@H](CC[C@]5(C)[C@@H]4C(=O)C=C4[C@@H]6CC(C)(C)CC[C@]6(C(=O)O)CC[C@]45C)[C@]3(C)CO)OC[C@H](O)[C@@H]2O)[C@H](O)[C@H](O)[C@H]1O | > 100 | 58.8 | 82.6 | > 500 | – |
| CC1(C)CC[C@]2(C(=O)N3CCN(CCC(=O)O)CC3)CC[C@]3(C)C(=CC[C@@H]4[C@@]5(C)CC[C@H](O)[C@@](C)(CO)[C@@H]5CC[C@]43C)[C@@H]2C1 | 31.5 | – | – | > 500 | IC50 [5]: 32.9 µM; IC50 [6]: 15 µM; IC50 [7]: > 40 µM; IC50 [8]: > 40 µM |
| C[C@H]1O[C@@H](O[C@H]2[C@H](O[C@H]3CC[C@@]4(C)[C@@H](CC[C@]5(C)[C@@H]4C(=O)C=C4[C@@H]6CC(C)(C)CC[C@]6(C(=O)NCC(=O)O)CC[C@]45C)[C@]3(C)CO)OC[C@H](O)[C@@H]2O)[C@H](O)[C@H](O)[C@H]1O | > 100 | 46.7 | 93.7 | 461 | – |
| C[C@H]1O[C@@H](O[C@H]2[C@H](O[C@H]3CC[C@@]4(C)[C@@H](CC[C@]5(C)[C@@H]4CC=C4[C@@H]6CC(C)(C)CC[C@]6(C(=O)OCCCCO[N+](=O)[O-])CC[C@]45C)[C@]3(C)CO)OC[C@H](O)[C@@H]2O)[C@H](O)[C@H](O)[C@H]1O | 84.5 | 22.1 | 66.5 | 14.9 | – |
| CC(=O)OC[C@@]1(C)[C@@H]2CC[C@]3(C)[C@H](CC=C4[C@@H]5CC(C)(C)CC[C@]5(C(=O)O)CC[C@]43C)[C@@]2(C)CC[C@@H]1O[C@@H]1OC[C@H](OC(C)=O)[C@H](OC(C)=O)[C@H]1O[C@@H]1O[C@H](C)[C@H](OC(C)=O)[C@@H](OC(C)=O)[C@H]1OC(C)=O | 72.1 | 69.9 | 74 | – | – |
| C[C@H]1O[C@@H](O[C@H]2[C@H](O[C@H]3CC[C@@]4(C)[C@@H](CC[C@]5(C)[C@@H]4CC=C4[C@@H]6CC(C)(C)CC[C@]6(C(=O)OCCCCCCO[N+](=O)[O-])CC[C@]45C)[C@]3(C)CO)OC[C@H](O)[C@@H]2O)[C@H](O)[C@H](O)[C@H]1O | 65.2 | 15.4 | 33.1 | 3.79 | – |
| C[C@H]1O[C@@H](O[C@H]2[C@H](O[C@H]3CC[C@@]4(C)[C@@H](CC[C@]5(C)[C@@H]4CC=C4[C@@H]6CC(C)(C)CC[C@]6(C(=O)OCCO[N+](=O)[O-])CC[C@]45C)[C@]3(C)CO)OC[C@H](O)[C@@H]2O)[C@H](O)[C@H](O)[C@H]1O | 80.2 | 17.8 | 33.1 | 16.2 | – |
| C[C@@H]1O[C@@H](O[C@H]2[C@H](O[C@H]3CC[C@@]4(C)[C@@H](CC[C@]5(C)[C@@H]4CC=C4[C@@H]6CC(C)(C)CC[C@]6(C(=O)O)CC[C@]45C)[C@]3(C)CO)OC[C@H](O)[C@@H]2O)[C@H](O)[C@@H](O)[C@H]1O | 18.6 to 20.9 | 12.2 | 14.6 | 3.86 | IC50 [5]: 17.8 µM; IC50 [6]: 20.7 µM; IC50 [7]: 19.6 µM; IC50 [8]: 22.2 µM |
